According to patent US20110136883A1, “GRANULATION OF ACTIVE PHARMACEUTICAL INGREDIENTS” (LEK PHARMACEUTICALS D.D., priority 2008, published 2011):

Assays:
Type in all cases: physicochemical
[1] = Physical properties of bulk powder / final granulate (moisture, densities, compressibility, flowability, angle of repose)
Experimental: Therefore, an oral pharmaceutical dosage needs a high dose of eprosartan mesylate to be incorporated into the pharmaceutical formulation in order to achieve the desired biological effect (here: significant reduction of blood pressure). The recommended daily starting and usual maintenance dose of eprosartan mesylate when used as monotherapy is 735.8 mg, equivalent to 600 mg eprosartan, available as the commercial Teveten 600 mg tablets. Therefore, the amount of excipients, required to achieve satisfactory technological properties (i.e. flowability, compressibility) should be the least possible to keep the weight of the tablet as low as possible (i.e. less than 1000 mg). Solubility, flowability or compressibility can be determined by using known methods in the art, for example the methods explained in the European Pharmacopoeia, 6th Edition. Larger tablets are in the light of patient compliance less preferred. WO 2006/052461 A1 proposes to enhance bioavailability of eprosartan by addition of substantial amounts of a solubilizer and an emulsifier.
Physical properties of briquetting powder as well as final mixture are important for a successful technological procedure using NAMADG.
Further, the impact of various nonaqueos liquid excipients on the formulation of Eprosartan tablets obtained from Examples 3 to 7 (cf. Tables 2 and 3), referring to a matrix of 1000 mg (mass after NAMADG+briquetting+sieving+blending), are summarized in Table 4.

[2] = Hygroscopicity; settings: at over 60% RH
Experimental: Hygroscopicity of an API or excipient can be measured by methods known to a skilled person. Mainly, such methods comprise determining the mass of small amounts of sample (i.e. 5-10 mg) as a function of time, while varying the controlled relative humidity and/or temperature in the environment. Data on hygroscopicity of mainly used excipients can be obtained from Handbook of Pharmaceutical Excipients, 4th edition, Rowe R C, Sheskey P J, Weller P J, eds.; Pharmaceutical Press and American Pharmaceutical Association, London-Washington, UK-USA, 2003.

[3] = X-ray diffraction check of eprosartan mesylate form (physical stability during processing); settings: ambient temperature and humidity used throughout the NAMADG-based method
Experimental: In order to test the ability of the NAMADG process principle according to the present invention for preparing tablets without occurrence different polymorphic forms of the API in the product, a placebo powder without API and anhydrous eprosartan mesylate processed according to Examples 2 to 7 were investigated. All examples were checked for eprosartan form. For comparison tests were conducted after conventional wet granulation conditions.
As a result, physical stability of the eprosartan mesylate was proven during processes when using the most critical API form, i.e. the anhydrate. […] The final tablet form and placebo powder were analyzed by X-ray diffraction (XRD) pattern to confirm presence of anhydrous form of eprosartan mesylate. More generally, X-ray diffraction (XRD) pattern can be obtained by methods known in the art, for example using Philips X'Pert PRO diffractometer with X'Celerator detector while exposing the searched material to CuKa radiation.

[4] = bulk eprosartan, particle size <10μ

Row | Structure (SMILES) | Angle of repose (°) [1, 4] [°] | Compressibility (%) [1, 4] [%] | Flow density [1, 4] [mL/g] | Moisture (%) [1, 4] | Tapped density [1, 4] [mL/g] | flowability [1, 4] [g/s] | flowability ([1]; drug per se, sticking on punches) | hygroscopicity [2] | physical and chemical stability [3]
1 | CCCCc1ncc(/C=C(\Cc2cccs2)C(=O)O)n1Cc1ccc(C(=O)O)cc1 [Bulk eprosartan] | >43 | >30 | >4.00 | 0.1-0.5% | >3.00 | <0.10 |  |  | 
2 | CCCCc1ncc(/C=C(\Cc2cccs2)C(=O)O)n1Cc1ccc(C(=O)O)cc1.CS(=O)(=O)O [eprosartan mesylate, (E)-α-[2-n-butyl-1-[(4-carboxyphenyl)methyl]-1H-imidazol-5-yl]methylene-2-thiophenepropionic acid monomethanesulfonate] |  |  |  |  |  |  | below 0.15 g/sec | hygroscopic | physically and chemically stable
